Reference: paper PMC4492764, “Evaluation of biomarkers for in vitro prediction of drug-induced nephrotoxicity: comparison of HK-2, immortalized human proximal tubule epithelial, and primary cultures of human proximal tubular cells” (Pharmacology Research & Perspectives, 2015)
Structures can show the parent of a compound that is named as a salt.

Columns and labels:
Assay type in all cases: cell-based, human
NGAL mRNA = NGAL mRNA qRT-PCR in hRPTECs; set-up: key to Upregulation of NGAL hRPTECs R: +: statistically significant increase; −: no significant increase; conditions: for NGAL mRNA levels in hRPTECs: 72 h exposure; for Upregulation of NGAL hRPTECs R: mRNA levels, 72 h time point
Procedure: HK-2 cells (ATCC CRL-2190; Manassas, VA) were maintained in DMEM/F12 (Life Technologies; Sydney, NSW, Australia) supplemented with 5 μg/mL insulin, 5 μg/mL transferrin, 5 ng/mL sodium selenite (ITS; Roche; […] (passage 2) and culture kits were purchased from Lonza. […] were maintained in Renal Epithelial Cell BulletKitTM (CC-3190, Lonza) at 37°C and 5% CO2 atmosphere. Cells were passaged to 96-well plates with a density of 4000 cells/well. After 24 h culture, compounds with different concentration series were added into each well and incubated for 4, 24, 48, and 72 h. HK-2 and […] were treated with compounds for 4, 24, 48, and 72 h, then the cells were lysed and the RNA reverse transcribed with the TaqMan® Gene Expression Cells-to-CTTM Kit (Life Technologies) according to the manufacturer's instructions. […] Hs00273334_m1), Lcn2 (NGAL; Hs01008571_m1), and Csf1 (M-CSF; Hs00174164_m1). All probes span an exon-exon junction. The real-time quantitative reverse transcription PCR (qRT-PCR) was performed in a 10 μl final reaction mixture using a ViiA 7TM system (Applied Biosystems®, Sydney, NSW, Australia) based on the following thermo cycling conditions: 10 min at 95°C for one cycle, 15 sec at 95°C, 60 sec at 60°C for 40 cycles. The ViiA 7TM software was used for data analysis with Hprt1 expression used for normalization. All assays were performed at least three times, with at least two technical replicates in each assay.

KIM-1 [1] = assay: KIM-1 protein ELISA in freshly isolated hPT cells; conditions: for KIM-1 protein increase in hPT cell lysate: 24 h treatment; for KIM-1 protein upregulation in hPT cells: high doses, within 24 h; for Upregulation of KIM-1 hPT P(L): protein levels in cell lysates, table title says 72 h time point
Procedure: hPT cells were derived from whole human kidneys procured by the International Institute for the Advancement of Medicine (Edison, NJ). All tissues were scored by a pathologist as normal (i.e., derived from noncancerous, nondiseased tissue). […] Whole kidneys were perfused with Wisconsin medium and kept on ice until they arrived at the laboratory, which was usually within 24 h of removal from the donor. All buffers were continuously bubbled with 95% O2/5% CO2 and were maintained at 37°C. Minced cortical pieces from whole kidneys were subjected to collagenase digestion for 60 min, after which the supernatant was filtered through a 70-μm mesh filter to remove tissue fragments, centrifuged at 150g for 7 min, and the pellet resuspended in Dulbecco’s Modified Eagle’s Medium: […] Approximately, 5–7 × 10^6 cells were obtained per 1 g of human kidney cortical tissue. […] Composition of this supplemented medium was based on earlier work establishing optimal conditions for primary culture of rat PT cells (Lash et al., [1995]). Basal medium was a 1:1 mixture of DMEM/F12. […] Cultures were grown at 37°C in a humidified incubator under an atmosphere of 95% air/5% CO2 at pH 7.4. Cultures were grown to approximately 80–90% confluence (generally 5–6 days) prior to experiments. Cells were harvested by either scraping the flasks with a Teflon scraper or by brief incubation with Cellstripper (Cellgro, Herndon, VA) (in Ca^2+- and Mg^2+-free Hanks’ buffer). KIM-1 (DY1750), NGAL (DY1757), and M-CSF (DY216) Duo-Set® ELISA kits were purchased from R&D systems (Minneapolis, MN). Sandwich-ELISA experiments were conducted following the manufacturer’s instructions with slight modifications. A 96-well microplate (MaxiSorp®, Nunc, Thermo Scientific, NSW, Australia) was coated with 100 μL of capture antibodies (diluted 1:200 in PBS) and incubated overnight. The plate was then washed twice with washing buffer (0.05% Tween 20 in PBS, pH 7.4) and blocked by adding 300 μL of blocking buffer (1% bovine serum albumin (BSA) in PBS) for 1 h at room temperature. After washing two times with PBS, 100 μL of samples (cell culture media or cell lysates) or standards were then added to each well and incubated for 2 h at room temperature. The biotinylated detection antibodies were then diluted in blocking buffer, added to each well and incubated for 2 h. Horseradish peroxidase (HRP)-labeled streptavidin (100 μL) was then added to bind to detection antibodies. To each well, 100 μL of substrate solution (1:1 mixture of H2O2 and tetramethylbenzidine) was added and incubated for 20 min before reaction termination with 50 μL of stop solution (2N H2SO4). The optical density of each well was measured at 450 nm using a POLARstar Omega plate reader (BMG Labtech). All assays were performed at least three times, with at least two technical replicates in each assay.

NGAL = NGAL protein ELISA in HK-2 cells; set-up: key: +: statistically significant increase; −: no significant increase; conditions: protein levels in culture medium; 72 h time point
Procedure: (§1) HK-2 cells (ATCC CRL-2190; Manassas, VA) were maintained in DMEM/F12 (Life Technologies; Sydney, NSW, Australia) supplemented with 5 μg/mL insulin, 5 μg/mL transferrin, 5 ng/mL sodium selenite (ITS; Roche; […] (passage 2) and culture kits were purchased from Lonza. […] were maintained in Renal Epithelial Cell BulletKitTM (CC-3190, Lonza) at 37°C and 5% CO2 atmosphere. Cells were passaged to 96-well plates with a density of 4000 cells/well. After 24 h culture, compounds with different concentration series were added into each well and incubated for 4, 24, 48, and 72 h. KIM-1 (DY1750), NGAL (DY1757), and M-CSF (DY216) Duo-Set® ELISA kits were purchased from R&D systems (Minneapolis, MN). Sandwich-ELISA experiments were conducted following the manufacturer's instructions with slight modifications. A 96-well microplate (MaxiSorp®, Nunc, Thermo Scientific, NSW, Australia) was coated with 100 μL of capture antibodies (diluted 1:200 in PBS) and incubated overnight. The plate was then washed twice with washing buffer (0.05% Tween 20 in PBS, pH 7.4) and blocked by adding 300 μL of blocking buffer (1% bovine serum albumin (BSA) in PBS) for 1 h at room temperature. After washing two times with PBS, 100 μL of samples (cell culture media or cell lysates) or standards were then added to each well and incubated for 2 h at room temperature. The biotinylated detection antibodies were then diluted in blocking buffer, added to each well and incubated for 2 h. Horseradish peroxidase (HRP)-labeled streptavidin (100 μL) was then added to bind to detection antibodies. To each well, 100 μL of substrate solution (1:1 mixture of H2O2 and tetramethylbenzidine) was added and incubated for 20 min before reaction termination with 50 μL of stop solution (2N H2SO4). The optical density of each well was measured at 450 nm using a POLARstar Omega plate reader (BMG Labtech). All assays were performed at least three times, with at least two technical replicates in each assay.

KIM-1 [2] = assay: KIM-1 protein ELISA in HK-2 cells; set-up: key: +: statistically significant increase; −: no significant increase; conditions: protein levels in culture medium; 72 h time point
Procedure: as §1

Molecule | NGAL mRNA levels in hRPTECs (NGAL mRNA; 10 μmol/L, P < 0.05) | Upregulation of NGAL hRPTECs R (NGAL mRNA) | KIM-1 protein increase in hPT cell lysate (KIM-1 [1]; 100 μmol/L) [fold] | KIM-1 protein upregulation in hPT cells (KIM-1 [1]) | Upregulation of KIM-1 hPT P(L) (KIM-1 [1]) | Upregulation of NGAL HK-2 P (NGAL) | Upregulation of KIM-1 HK-2 P (KIM-1 [2]) | NGAL mRNA levels in hRPTECs (NGAL mRNA; 100 μmol/L, P < 0.01) | KIM-1 protein increase in hPT cell lysate (KIM-1 [1]; 300 μmol/L)
N.N.[Cl][Pt][Cl] [Cisplatin, cisplatin] | kept rising | + | 32 | significant upregulation | >32-fold | − | − |  | 
Colistin sulfate |  | + |  | significant upregulation | >12-fold | − | − | kept rising | 12 fold
CNC(C)C1CCC(N)C(OC2C(N)CC(N)C(OC3OCC(C)(O)C(NC)C3O)C2O)O1 (centres unmarked) [Gentamicin, gentamicin sulfate] |  | − |  | significant upregulation | Greater than fivefold | − | − |  | fivefold
